Data set [1] deals with human corneal epithelial cell lines (HCE-T and CEPI-17-CI.4) and human conjunctival epithelial cells.
Method: Hypromellose, Carbopol or sodium hyaluronate were used to supplement an ocular surface medium at concentrations ranging from 0.0001% to 0.4%. The pH and osmolarity of all of the resultant formulations were controlled and adjusted to be within physiological range. The biophysical properties, i.e. viscosity and surface tension, were determined with a rheometer and an electronic manometer. Two human corneal epithelial cell lines (HCE-T and CEPI-17-CI.4) and two human conjunctival epithelial cells were used to investigate cell proliferation, viability and migration in response to the formulations by means of a luminescence based ATP-assay, a calcein AM/EthD-1 assay and a colony dispersion assay.
For data set [2] the following is noted: for comparison; cited from earlier work.

As to hypromellose, the Toxicity entry in data set [1] was “low toxicity”. For the compound `O` [water], the Surface tension entry in data set [2] is given as “about 70 mN/m”.

Values taken from US20070280924A1, “Pharmaceutical Preparations For And Treatment Of Ocular Surface and Other Disorders” (priority 2004, published 2007).
